Source: patent US12509444B2, “Compounds and methods for CD73 modulation and indications therefor” (Plexxikon Inc., priority 2019, dated 2025)

What was measured:
[1] = biological target: T1, Human CD73 (amino acid residues 27-549) (Homo sapiens, UniProt P21589); assay: CD73 enzymatic assay (luciferase-based indirect assay, CellTiter-Glo); assay type: biochemical; conditions: 0.4 nM CD73, 150 μM AMP, 1 hour at room temperature
T1 construct: Human CD73 (amino acid residues 27-549); His tag (N); made in house; host or cells: E. coli
T1 sequence (P21589 27-549): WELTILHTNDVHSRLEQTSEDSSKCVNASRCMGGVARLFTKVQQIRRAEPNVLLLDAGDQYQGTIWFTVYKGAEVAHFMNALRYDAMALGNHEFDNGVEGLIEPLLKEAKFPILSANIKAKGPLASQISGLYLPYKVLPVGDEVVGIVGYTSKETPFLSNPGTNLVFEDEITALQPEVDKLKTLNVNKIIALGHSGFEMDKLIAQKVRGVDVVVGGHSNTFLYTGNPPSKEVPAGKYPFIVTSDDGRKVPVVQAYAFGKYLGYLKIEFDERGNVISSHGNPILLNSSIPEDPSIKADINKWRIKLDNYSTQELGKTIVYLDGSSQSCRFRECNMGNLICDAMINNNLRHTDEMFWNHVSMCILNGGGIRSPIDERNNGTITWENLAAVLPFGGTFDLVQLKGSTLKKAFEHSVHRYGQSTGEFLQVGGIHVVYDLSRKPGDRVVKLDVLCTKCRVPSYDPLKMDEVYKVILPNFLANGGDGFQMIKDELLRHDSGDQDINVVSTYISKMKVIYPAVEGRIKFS
Procedure, shortened: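 Residual AMP inhibits luciferase, so luminescence reports CD73 turnover; read with CellTiter-Glo 2.0 plus 1 μM final ATP, 30 min. Reaction used 0.4 nM N-His CD73 (27-549, E. coli), 150 μM AMP, HEPES pH 7.4 with Tween 20, 1 h at room temperature. IC50 fitted by nonlinear regression.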

[2] = biological target: T2, human CD73 (Homo sapiens, UniProt P21589); assay: Inhibitor activity against CD73 in cell based assay (CD73 expressing CHO-K1 cells); conditions: CHO-K1 cells expressing human CD73, 150 μM AMP, 4 hours of incubation; read-out: CHO-K1 CELL VARIANT: CD73 IC50
T2 construct: expressed in transfected cells
T2 sequence (P21589 27-549): T1 sequence (P21589 27-549)
Procedure, shortened: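 Residual supernatant AMP was quantified via CellTiter-Glo luminescence (1 μM ATP added, 30 min, room temperature) after a 4 h exposure of human CD73-expressing CHO-K1 cells to 150 μM AMP plus compound, top final 10 μM, 8 points. IC50 came from nonlinear regression of percent inhibition.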

IC50 [1] [µM] | IC50 [2] [µM] | Structure (SMILES)
0.001 to 10 | 0.001 to 10 | O=C(NC1CCN(C(=O)Nc2ncccc2F)CC1)O[C@@H]1CCN(c2cn[nH]c(=O)c2Cl)C1 [P-0438, (R)-1-(5-chloro-6-oxo-1,6-dihydropyridazin-4-yl)pyrrolidin-3-yl (1-((3-fluoropyridin-2-yl)carbamoyl)piperidin-4-yl)carbamate]
0.001 to 10 | 0.001 to 10 | CC1(NC(=O)O[C@@H]2CCN(c3cnn(CCO)c(=O)c3Cl)C2)CC(F)(F)C1 [P-0439, (R)-1-(5-chloro-1-(2-hydroxyethyl)-6-oxo-1,6-dihydropyridazin-4-yl)pyrrolidin-3-yl (3,3-difluoro-1-methylcyclobutyl)carbamate]
0.001 to 10 | 0.001 to 10 | O=C(NC1C2CCC1CC(F)(F)C2)O[C@@H]1CCN(c2cn[nH]c(=O)c2Cl)C1 (stereo partly drawn) [P-0440, (R)-1-(5-chloro-6-oxo-1,6-dihydropyridazin-4-yl)pyrrolidin-3-yl (3,3-difluorobicyclo[3.2.1]octan-8-yl)carbamate]
0.001 to 10 | 0.001 to 10 | O=C(NC1CC2C(C1)C2(F)F)O[C@@H]1CCN(c2cn[nH]c(=O)c2Cl)C1 (stereo partly drawn) [P-0441, (R)-1-(5-chloro-6-oxo-1,6-dihydropyridazin-4-yl)pyrrolidin-3-yl (6,6-difluorobicyclo[3.1.0]hexan-3-yl)carbamate]
0.001 to 10 | 0.001 to 10 | COc1ccc(CC(=O)N2CCC(NC(=O)O[C@@H]3CCN(c4cn[nH]c(=O)c4Cl)C3)CC2)cc1 [P-0442, (R)-1-(5-chloro-6-oxo-1,6-dihydropyridazin-4-yl)pyrrolidin-3-yl (1-(2-(4-methoxyphenyl)acetyl)piperidin-4-yl)carbamate]
0.001 to 10 | 0.001 to 10 | O=C(NC1CCN(C(=O)Cc2ccc(F)cc2)CC1)O[C@@H]1CCN(c2cn[nH]c(=O)c2Cl)C1 [P-0443, (R)-1-(5-chloro-6-oxo-1,6-dihydropyridazin-4-yl)pyrrolidin-3-yl (1-(2-(4-fluorophenyl)acetyl)piperidin-4-yl)carbamate]
0.001 to 10 | 0.001 to 10 | O=C(NC1CCN(C(=O)Cc2ccc(Cl)c(F)c2)CC1)O[C@@H]1CCN(c2cn[nH]c(=O)c2Cl)C1 [P-0444, (R)-1-(5-chloro-6-oxo-1,6-dihydropyridazin-4-yl)pyrrolidin-3-yl (1-(2-(4-chloro-3-fluorophenyl)acetyl)piperidin-4-yl)carbamate]
0.001 to 10 | 0.001 to 10 | O=C(NC1CCN(C(=O)Cc2ccc(F)c(Cl)c2)CC1)O[C@@H]1CCN(c2cn[nH]c(=O)c2Cl)C1 [P-0445, (R)-1-(5-chloro-6-oxo-1,6-dihydropyridazin-4-yl)pyrrolidin-3-yl (1-(2-(3-chloro-4-fluorophenyl)acetyl)piperidin-4-yl)carbamate]
0.001 to 10 | 0.001 to 10 | O=C(NC1CC2CCC2C1)O[C@@H]1CCN(c2cn[nH]c(=O)c2Cl)C1 (stereo partly drawn) [P-0446, (R)-1-(5-chloro-6-oxo-1,6-dihydropyridazin-4-yl)pyrrolidin-3-yl bicyclo[3.2.0]heptan-3-ylcarbamate]
0.001 to 10 | 0.001 to 10 | O=C(N[C@@H]1CCC[C@H]1F)O[C@@H]1CCN(c2cn[nH]c(=O)c2Cl)C1 [P-0447, (R)-1-(5-chloro-6-oxo-1,6-dihydropyridazin-4-yl)pyrrolidin-3-yl ((1R,2R)-2-fluorocyclopentyl)carbamate]
0.001 to 10 | 0.001 to 10 | O=C(NC12CCC(F)(CC1)C2)O[C@@H]1CCN(c2cn[nH]c(=O)c2Cl)C1 [P-0448, (R)-1-(5-chloro-6-oxo-1,6-dihydropyridazin-4-yl)pyrrolidin-3-yl (4-fluorobicyclo[2.2.1]heptan-1-yl)carbamate]
0.001 to 10 | 0.001 to 10 | O=C(NC1CC2CC2C1)O[C@@H]1CCN(c2cnn(CCO)c(=O)c2Cl)C1 (stereo partly drawn) [P-0449, (R)-1-(5-chloro-1-(2-hydroxyethyl)-6-oxo-1,6-dihydropyridazin-4-yl)pyrrolidin-3-yl bicyclo[3.1.0]hexan-3-ylcarbamate]
0.001 to 10 | 0.001 to 10 | CC1CCCC1NC(=O)O[C@@H]1CCN(c2cnn(CCO)c(=O)c2Cl)C1 (stereo partly drawn) [P-0450, (R)-1-(5-chloro-1-(2-hydroxyethyl)-6-oxo-1,6-dihydropyridazin-4-yl)pyrrolidin-3-yl (2-methylcyclopentyl)carbamate]
0.001 to 10 | 0.001 to 10 | O=C(NC1CC2CCC1O2)O[C@@H]1CCN(c2cnn(CCO)c(=O)c2Cl)C1 (stereo partly drawn) [P-0451, (R)-1-(5-chloro-1-(2-hydroxyethyl)-6-oxo-1,6-dihydropyridazin-4-yl)pyrrolidin-3-yl (7-oxabicyclo[2.2.1]heptan-2-yl)carbamate]
0.001 to 10 | 0.001 to 10 | CC1(NC(=O)O[C@@H]2CCN(c3cnn(CCO)c(=O)c3Cl)C2)CCCC1 [P-0452, (R)-1-(5-chloro-1-(2-hydroxyethyl)-6-oxo-1,6-dihydropyridazin-4-yl)pyrrolidin-3-yl (1-methylcyclopentyl)carbamate]
0.001 to 10 | 0.001 to 10 | O=C(NC1CC2C(C1)C2(F)F)O[C@@H]1CCN(c2cnn(CCO)c(=O)c2Cl)C1 (stereo partly drawn) [P-0453, (R)-1-(5-chloro-1-(2-hydroxyethyl)-6-oxo-1,6-dihydropyridazin-4-yl)pyrrolidin-3-yl (6,6-difluorobicyclo[3.1.0]hexan-3-yl)carbamate]
0.001 to 10 | 0.001 to 10 | O=C(N[C@@H]1CCC(F)(F)C1)O[C@@H]1CCN(c2cn[nH]c(=O)c2Cl)C1 [P-0454, (R)-1-(5-chloro-6-oxo-1,6-dihydropyridazin-4-yl)pyrrolidin-3-yl ((R)-3,3-difluorocyclopentyl)carbamate]
0.001 to 10 | 10 to 100 | O=C(N[C@H]1CCC[C@H]1O)O[C@@H]1CCN(c2cn[nH]c(=O)c2Cl)C1 [P-0455, (R)-1-(5-chloro-6-oxo-1,6-dihydropyridazin-4-yl)pyrrolidin-3-yl ((1S,2R)-2-hydroxycyclopentyl)carbamate]
0.001 to 10 | 0.001 to 10 | CCOC(=O)[C@@H]1CCC[C@H]1NC(=O)O[C@@H]1CCN(c2cn[nH]c(=O)c2Cl)C1 [P-0456, ethyl (1R,2R)-2-(((((R)-1-(5-chloro-6-oxo-1,6-dihydropyridazin-4-yl)pyrrolidin-3-yl)oxy)carbonyl)amino) cyclopentane-1-carboxylate]
0.001 to 10 | 0.001 to 10 | O=C(N[C@@H]1CC[C@@H](O)C1)O[C@@H]1CCN(c2cn[nH]c(=O)c2Cl)C1 [P-0457, (R)-1-(5-chloro-6-oxo-1,6-dihydropyridazin-4-yl)pyrrolidin-3-yl ((1R,3R)-3-hydroxycyclopentyl)carbamate]
0.001 to 10 | 0.001 to 10 | O=C(N[C@H]1CC[C@H](O)C1)O[C@@H]1CCN(c2cn[nH]c(=O)c2Cl)C1 [P-0458, (R)-1-(5-chloro-6-oxo-1,6-dihydropyridazin-4-yl)pyrrolidin-3-yl ((1S,3S)-3-hydroxycyclopentyl)carbamate]
0.001 to 10 | 0.001 to 10 | O=C(N[C@H]1CC[C@@H](O)C1)O[C@@H]1CCN(c2cn[nH]c(=O)c2Cl)C1 [P-0459, (R)-1-(5-chloro-6-oxo-1,6-dihydropyridazin-4-yl)pyrrolidin-3-yl ((1S,3R)-3-hydroxycyclopentyl)carbamate]
0.001 to 10 | 0.001 to 10 | O=C(N[C@@H]1CC[C@H](O)C1)O[C@@H]1CCN(c2cn[nH]c(=O)c2Cl)C1 [P-0460, (R)-1-(5-chloro-6-oxo-1,6-dihydropyridazin-4-yl)pyrrolidin-3-yl ((1R,3S)-3-hydroxycyclopentyl)carbamate]
